What was measured:
adenylate kinase = test: Adenylate kinase assay; format: biochemical; details: concentrations up to 100 μM; data not shown
Procedure: (§1) Additional enzyme assays. Glycogen phosphorylase (EC 2.4.1.1) was assayed in the physiological direction in reactions containing 20 mM BES pH 6.8, 20 mM phosphate, 1 mM NADP+, 0.5 mM MgCl2, 0.1 % glycogen, 4 µM glucose-1,6-bisphosphate, 0.5 mM DTT, 0.025 % BSA, 0.6 U/ml phosphoglucomutase and 3 U/ml glucose-6-phosphate dehydrogenase (G6PDH). FBP1 (EC 3.1.3.11) was assayed in reactions containing 50 mM TES pH 7.4, 0.1 […]
(§2) mM 2-mercaptoethanol, 25 µM fructose-1,6-bisphosphate, 0.8 U/ml phosphoglucoisomerase and 0.5 U/ml G6PDH. PFK1 (EC 2.7.1.11) was assayed in reactions containing 50 mM TES pH 7.4, 2 mM MgCl2, 0.05 % BSA, 2 mM 2-mercaptoethanol, 0.5 mM fructose-6-phosphate, 1 mM ATP, 0.2 mM NADH, 0.5 U/ml aldolase, 15 U/ml triosephosphate isomerase and 2 U/ml α-glycerophosphate dehydrogenase. […] All assays were performed in a final volume of 250 µl and were monitored by changes in fluorescence (FBP1 - λex 340nm, λem 450nm) or A340. […] Liberated phosphate was determined using malachite green reagent. […] The formation of pyrophosphate (PPi) was monitored by reduction of PPi-molybdate complexes using 2-mercaptoethanol and Fiske-Subbarow reducer (Kuang, et al., 2007). […]
(§3) Tricistronic expression vectors were constructed using a strategy inspired by Neumann et al (Neumann, et al., 2003). […] The open reading frame of AMPKα1 and AMPKα2 was inserted after the 6×His tag as a Bamh1-Not1 fragment. […]

5′-nucleotidase = test: 5′-Nucleotidase assay; format: biochemical; details: concentrations up to 100 μM; data not shown
Procedure: as §1, §2, §3

[1] = tested on: primary mouse hepatocytes; test: Fatty acid esterification, [3H]palmitic acid incorporation into triglycerides; format: cell-based; details: 30 min treatment, then 60 min labeling
Procedure: Figure 5 C13 Inhibits Lipid Synthesis and Fatty Acid Esterification in Mouse Hepatocytes in an AMPK-Dependent Manner (A) Mouse hepatocytes were treated with the indicated concentrations of C13 and labeled with [1-^14C]acetate for 3 hr. A769662 (100 μM) and AICAR (0.5 mM) were included as positive controls. Rates of fatty acid and sterol synthesis were estimated by incorporation into saponifiable and nonsaponifiable lipids. Results are expressed as the mean acetate incorporated in micromoles per gram-hour ± SD and are representative of two independent experiments. (B) Mouse hepatocytes were treated with the indicated compounds for 30 min and labeled with media containing 0.5 mM palmitic acid (1 mCi⋅mmol^−1 [9,10-^3H]palmitic acid) for an additional 60 min. Incorporation into triglyceride was determined as described in Experimental Procedures and results are expressed as palmitate incorporated in micromoles per gram-hour ± SD and are representative of three independent experiments. […] Results are expressed as percentage WT vehicle and represent the mean ± SD for three independent experiments. […]
Fatty acid esterification was determined by labeling primary hepatocytes with [9,10-^3H(N)]palmitate. […] Lipids were stained with iodine vapor and triglyceride eluted from TLC scrapings with 1:1 ethanol:Triton X-100, and the incorporation of [^3H] was determined by scintillation counting.

Compound | effect on enzyme activity (adenylate kinase) | effect on enzyme activity (5′-nucleotidase) | fatty acid esterification [1]
O=P(O)(O)c1ccc(-c2cc(O)on2)o1 [Compound C2, 5-(5-hydroxyl-isoxazol-3-yl)-furan-2-phosphonic acid] | None of these enzymes were affected | None of these enzymes were affected | 
CC(C)C(=O)OCOP(=O)(OCOC(=O)C(C)C)c1ccc(C2=NOC(=O)C2)o1 [Compound C13] |  |  | inhibited

Source: article PMC4104029, “Mechanism of Action of Compound-13: An α1-Selective Small Molecule Activator of AMPK” (Chemistry & Biology, 2014)
